Assay results as given in patent US9616037B2, “Aryl-phenyl-sulfonamido-cycloalkyl compounds and their use” (PIMCO 2664 Limited, priority 2008, dated 2017).
Values after ≈ are worked out from the molar mass of the structure shown.

Assays:
[1] = Human liver microsomal stability assay; format: in vitro ADME; details: both sexes, pH 7.4; pooled human liver microsomes 0.5 mg/mL, 3 μM compound, NADPH, 45 minute incubation
Protocol: (§1) Initial screening of candidate compounds was performed using in vitro assays to determine potency, metabolic stability and solubility in biologically relevant fluids. Potency was assessed using a viability assay based on the survival of the J774 macrophage cell line. […] Like osteoclasts, J774 macrophages are dependent on continued NFκB activation for survival, thereby providing a valuable screen for compounds with anti-inflammatory activity. Metabolic stability was measured by determining the rate of disappearance of compound in the presence of human liver microsomal preparations, as quantified by LC-MS/MS. Solubility was measured by equilibration of the compound in fasted state simulated intestinal fluid (FaSSIF) and quantified by HPLC.
Metabolic stability of APSAC derivatives was measured by determination of the rate of compound disappearance when incubated in the presence of human liver microsomes. Liver microsomes are prepared from the endoplasmic reticulum of hepatocytes and are the primary source of the most important enzymes (cytochrome P450) involved in drug metabolism. Study of drug stability in the presence of liver microsomes is accepted as a valuable model permitting rapid prediction of in vivo drug stability.
Human liver microsomes were obtained from a commercial source. Test compounds (3 μM) were incubated with pooled liver microsomes (male and female). Samples were incubated for a 45 minute period and removed at 5 time points and test compounds were analysed by LC-MS/MS.
The final incubation volume was 25 μL. A control incubation was included for each compound tested, where 0.1 M phosphate buffer pH 7.4 was added instead of NADPH. The control compounds testosterone and 7-hydroxycoumarin were included in each experiment and all incubations were performed singularly for each compound.
Each compound was incubated for 0, 5, 15, 30, and 45 minutes. The control (minus NADPH) was incubated for 45 minutes only. […] The incubation plates were centrifuged at 2500 rpm for 20 minutes at 4° C. to precipitate the protein.
Following protein precipitation, the sample supernatants were combined in cassettes of up to 4 compounds and analysed using standard LC-MS/MS conditions.
From a plot of the natural logarithm of the peak area ratio (i.e., the ratio of compound peak area:internal standard peak area) against time, the gradient of the line was determined. Subsequently, half-life and intrinsic clearance were calculated using the equations below: Eliminated rate constant (k)=(−gradient). […] Pharmacokinetics Studies

[2] = Thermodynamic aqueous solubility in fasted state simulated intestinal fluid (FaSSIF); format: physicochemical; details: pH 6.5, thermodynamic from solid, equilibrated at 25° C. for 24 hours, HPLC
Protocol: as §1
Thermodynamic aqueous solubility was measured by equilibration of a number of APSAC compounds, in the solid state, with fasted state simulated intestinal fluid (FaSSIF) and quantified by HPLC. Measurement of solubility in FaSSIF provides a valuable model for the prediction of drug dissolution following oral administration.
The pH was adjusted to 6.5 using 1 M NaOH solution.
0.6 mL of a solution containing 100 mg/mL lecithin in methylene chloride was added. The methylene chloride was eliminated under vacuum at about 40° C. The vacuum was drawn for 15 minutes at 250 mbar, followed by 15 minutes at 100 mbar. […] After cooling to room temperature, the solution was then adjusted to 100 mL with blank FaSSIF.
The suspension was equilibrated at 25° C. for 24 hours, and then the pH was measured. The suspension was then filtered through a glass fibre C filter into a 96-well plate. The filtrate was then diluted by a factor of 100. Quantification was made by HPLC with reference to a standard solution of compound at approximately 0.1 mg/mL in DMSO. Different volumes of the standard, diluted and undiluted sample solutions were injected. […] Analysis was performed on an Agilent HP1100 series system equipped with a diode array detector and using ChemStation software vB.02.01-SR1.

[3] = In vivo pharmacokinetics study, oral and intravenous dosing; details: rat, 1 mg/kg; for half-life / bioavailability: male, Sprague-Dawley, plasma; for bioavailability: oral
Protocol: Absorption and metabolic stability were studied using an in vivo pharmacokinetics assay. Drug levels were assessed using ultra-performance LC/TOF-MS.
Three male Sprague-Dawley rats, 200-300 g, were dosed per route. Test compound was administered either orally or intravenously (dose level of 1 mg/kg body weight). Test compound was formulated in 50:50 tetraethylene glycol:PBS for both routes. Animals were given free access to food throughout the study. On the day prior to dosing, the carotid artery was cannulated for sample collection and for the intravenous study the jugular vein was cannulated to enable dosing.
Blood samples were taken from the carotid artery at the following time points and placed in heparinised tubes: • Oral dosing—predose, 0.25, 0.5, 1, 2, 4, 8 and 24 hours post dose. • IV dosing—predose, 0.08, 0.25, 0.5, 1, 2, 4 and 8 hours post dose.
Blood samples were centrifuged to obtain plasma, which was transferred to a separate container and frozen at −20° C.
The supernatants were collected for analysis. The standard samples were prepared similarly, after spiking blank rat plasma samples to study compound concentrations at 1, 2, 5, 10, 20, 50, 100, 200, 500 and 1000 ng/mL. In addition, extra samples were prepared from 0-1 hour i.v. samples by diluting 1/20 with 50% aqueous acetonitrile to avoid exceeding the linear range of the analytical method.
A Waters Acquity liquid ultra-performance chromatographic system (Waters Corp., Milford, Mass., USA) with autosampler, vacuum degasser and column oven was used. The analytical column used for all compounds was a Waters BEH C18, (2.1×50 mm, 1.7 μm, Waters Corp, Milford, Mass., USA) together with a 0.2 μm on-line filter before the column. The eluents were 0.1% acetic acid (A, pH 3.2) and methanol (B). Gradient elution from 5% to 60% B in two minutes was employed, followed by one minute gradient to 90% B and column equilibration. The flow rate was 0.5 mL/min and the column oven temperature was 35° C. The flow was directed to the MS via Water Acquity photo-diode-array (PDA) detector. LC/TOF-MS data were recorded with a Micromass LCT Premier XE time-of-flight (TOF) mass spectrometer (Micromass Ltd., Manchester, England) equipped with a LockSpray electrospray ionization source. A positive ionization mode of electrospray was used for all compounds. The mass range of m/z 100-900 was acquired. The W-option of the reflector was used, and the DRE (dynamic range enhancement) option was set to on. The mass spectrometer and HPLC system were operated under Micromass MassLynx 4.1 software. […] Masslynx 4.1 software was used for controlling the instrumentation and for data processing.
The pharmacokinetic parameters for the test compounds were calculated by WinNonlin Pro (Pharsight Corp, CA) using standard noncompartmental methods. The elimination phase half-life (t1/2) was calculated by least-squares regression analysis of the terminal linear part of the log concentration—time curve. The area under the plasma concentration—time curve (AUC) was determined by use of the linear trapezoidal rule up to the last measurable concentration and thereafter by extrapolation of the terminal elimination phase to infinity.

SMILES	half-life at 3 µM [1]	solubility at 24 h [2]	half-life ([3]; iv)	bioavailability [3]	half-life ([3]; po)	AUC ([3]; i.v.)	AUC ([3]; p.o.)
O=S(=O)(N[C@H]1CC[C@@H](CO)C1)c1ccc(-c2ccc(F)cc2F)cc1 [ABD773, 2′,4′-Difluoro-N-((1 S,3R)-3-(hydroxymethyl)cyclopentyl)biphenyl-4-sulfonamide]	54 min	890 µg/mL (≈ 2420 µM)	48.6 min	13%	190 min	11900 ng/mL/min	1500 ng/mL/min
O=S(=O)(N[C@H]1CC[C@@H](CO)CC1)c1ccc(-c2ccc(F)cc2F)cc1 [ABD781, 2′,4′-Difluoro-N-(cis-4-(hydroxymethyl)cyclohexyl)biphenyl-4-sulfonamide]	41 min	590 µg/mL (≈ 1550 µM)	52.2 min	43%	197 min	22400 ng/mL/min	9600 ng/mL/min
